Patent publication US10874752B2, “MIBG analogs and uses thereof” (Board of Regents of The University of Nebraska, priority 2015, dated 2020)
Blank lines part the entries; values can stand above or below the molecule they belong to.

How the values were obtained:
[1] = Stability in mouse serum (HPLC of extracts); type: in vitro ADME; details: up to 24 h, ambient temperature or 37° C.
Method: (§1) Incubations: into a solution (1980 μL) of serum (mouse, human), buffer or cells media, a sample of (17a), (185-390 kBq) in 15-20 μL of 25% EtOH/PB (100 mM, pH 6.1) was added; the resulting mixture was briefly vortexed and kept (up to 24 h) at ambient temperature or inside the incubator (37° C./˜5% CO2). At each time point, a volume of 1 mL was withdrawn, the extract of sample prepared and analyzed by HPLC.
(§2) Preparation of extracts: a sample (1 mL) from each incubated mixture with compound (17a) was treated with MeCN (1 mL), vortexed, and centrifuged (2,000 rpm, 15 min). The supernatant was removed and the radioactivity measured. Aliquots of supernatant (250-500 μL) were acidified to pH˜6 with 0.05 N TFA (2-8 μL). The excess of MeCN was evaporated with a stream of nitrogen and water (100 μL) added. A mixture was passed through a 0.2μ filter and each sample (˜100 μL, 95-185 kBq) injected on HPLC system.
(§3) HPLC analysis of extracts: continued on Columbus C18 100 Å (5 μm, 4.6×250 mm) column; eluted at 0.8 mL/min with a linear gradient of MeCN from 0 to 95% over 60 min and 95% MeCN was kept for a period of further 20 min, detecting the radioactivity (Bioscan NaI(T)). Both solvents contained 0.07% TFA (v/v).

[2] = Stability in human serum (HPLC of extracts); type: in vitro ADME; details: up to 24 h, ambient temperature or 37° C.
Method: as §1, §2, §3

[3] = cited from earlier work
SK-N-SH cells = assay: Uptake by SK-N-SH cells competed by MIBG; type: cell-based, human; details: competition with MIBG (FIG. 16)
human NB SK-N-SH cells = assay: Radiotoxicity, clonogenic assay in SK-N-SH cells; type: cell-based
From the text: (§4) Conjugate 17b was used for further testing. […] All drugs were designed so that they produce either 5-radioiodo-2′-deoxyuridine [RIUdR] or its 5′-monophosphate. Both metabolites can participate in the DNA synthesis allowing deposits of high LET radiation directly within the DNA structure. RIUdR, incorporated into the DNA of cancer cells in place of thymidine, is retained there for the life of the cell. It is extraordinarily lethal when labeled with Auger-electron-emitting radioiodines, which produce a cascade of monoenergetic electrons known as conversion and Auger electrons. These electrons deposit their energy within a tiny sphere around the decaying atom, i.e., the effective distance of Auger electrons is less than the diameter of the cancer cell nucleus. As a result, their cytotoxicity is dependent on the intranuclear localization, i.e., within the DNA or immediate vicinity of the DNA. Radiotoxicity of several reagents was tested in SK-N-SH cells. Tested drugs eradicate NB cells more efficiently than MIBG.
FIG. 14A-C show results of a pilot radiotoxicity study comparing the reproductive integrity of colonies of human NB SK-N-SH cells treated with conjugate 17b (radiolabeled with ^125I) and ^125IMIBG at 37 kBq/mL, two weeks after treatment.

SK-N-SH NB cells = assay: Subcellular distribution of 125I in SK-N-SH NB cells; type: cell-based, human; details: SK-N-SH NB cells exposed at 80 kBq/mL for 1 h, harvested 24 h later
From the text: as §4

stability in mouse serum [1]: limited
stability in human serum [2]: limited
Structure (SMILES): N=C(N)NCCC(=O)OC[C@H]1O[C@@H](n2cc([125I])c(=O)[nH]c2=O)C[C@@H]1O [17a, 5-[^125I]-Iodo-5′-O-propionylguanidino-2′-deoxyuridine]

Structure (SMILES): N=C(N)NCc1cccc([131I])c1 [^131IMIBG, ^131I-metaiodobenzylguanidine]
long-term survivors developing thyroid disorders ([3]; long-term survivors treated with 131IMIBG): over 80%
maximum tolerated dose ([3]; patients with neuroblastoma): > 600 MBq/kg

Structure (SMILES): N=C(N)NCCCCCC(=O)OC[C@H]1O[C@@H](n2cc([125I])c(=O)[nH]c2=O)C[C@@H]1O [conjugate 17b, 5-[^125I]-Iodo-5′-O-hexanoylguanidino-2′-deoxyuridine]
uptake by SK-N-SH cells (SK-N-SH cells): competed by MIBG
retention within the cell (human NB SK-N-SH cells): trapped within the cell
radiotoxicity (reproductive integrity of colonies) (human NB SK-N-SH cells; 37 kBq/mL, two weeks after treatment, compared with 125IMIBG): far more radiotoxic
cells receiving a lethal dose of radiation, clonogenic assay (human NB SK-N-SH cells; 1 h with the drug, compared with 125IMIBG): more cells receive a lethal dose of radiation
subcellular distribution of 125I (SK-N-SH NB cells): All ^125I is associated with the DNA fraction
